Results: PubChem BioAssay AID588577 (Sanford-Burnham Center for Chemical Genomics, 2011)
Calls of active or inactive are those of the source. How the calls were made is not given here.

Target: Caspase-3 (Homo sapiens) + Caspase-9 (Homo sapiens) (UniProt P42574+P55211)
Assay: inhibition of LZ-caspase-9 coupled caspase-3 activity – biochemical, fluorescence, selectivity assay for Apaf-1 inhibitor project, SAR follow-up (AID 588577)
Conditions: recombinant LZ-caspase-9 activating caspase-3, fluorogenic substrate

Caspase-3 (Homo sapiens) + Caspase-9 (Homo sapiens), sequence (P42574 whole entry, looked up): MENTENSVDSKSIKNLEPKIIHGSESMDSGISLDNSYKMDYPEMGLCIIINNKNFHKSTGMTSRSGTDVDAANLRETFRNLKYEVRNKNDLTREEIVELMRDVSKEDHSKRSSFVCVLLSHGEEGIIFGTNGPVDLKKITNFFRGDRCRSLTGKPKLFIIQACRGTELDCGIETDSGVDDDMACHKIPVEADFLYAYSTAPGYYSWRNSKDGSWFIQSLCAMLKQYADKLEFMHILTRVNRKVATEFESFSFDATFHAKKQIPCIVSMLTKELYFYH
Caspase-3 (Homo sapiens) + Caspase-9 (Homo sapiens), sequence (P55211 whole entry, looked up): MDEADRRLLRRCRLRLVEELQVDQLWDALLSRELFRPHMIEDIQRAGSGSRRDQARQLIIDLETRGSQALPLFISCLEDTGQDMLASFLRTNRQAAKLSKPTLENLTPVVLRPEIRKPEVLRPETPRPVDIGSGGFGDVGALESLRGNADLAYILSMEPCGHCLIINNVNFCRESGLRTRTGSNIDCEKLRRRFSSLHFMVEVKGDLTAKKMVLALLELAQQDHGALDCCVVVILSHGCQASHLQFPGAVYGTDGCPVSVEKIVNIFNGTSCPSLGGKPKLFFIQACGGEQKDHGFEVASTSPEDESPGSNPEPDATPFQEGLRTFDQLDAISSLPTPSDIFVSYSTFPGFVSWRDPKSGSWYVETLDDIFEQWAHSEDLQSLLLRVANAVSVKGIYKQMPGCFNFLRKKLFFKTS

IC50 | SMILES
> 100 µM (inactive) | O=C(Nc1ccc2nc(-c3ccc(Br)o3)[nH]c2c1)c1cccs1
> 100 µM (inactive) | CCN(CC)CCOC(=O)c1ccc(N/C=C(\C#N)c2nc(-c3ccc(Br)cc3)cs2)cc1
> 100 µM (inactive) | CCN(CC)CCOC(=O)c1ccc(N/C=C(/C#N)c2nc(-c3ccc(OC)c(OC)c3)cs2)cc1
> 100 µM (inactive) | CCN(CC)CCOC(=O)c1ccc(N/C=C(\C#N)c2nc(-c3cccs3)cs2)cc1
85.3 µM | Cn1cc(C(CC(=O)c2ccc(C(C)(C)C)cc2)C(=O)O)c2ccccc21 (stereo not given)
> 100 µM (inactive) | O=C(Nc1ccc2c(c1)C(=O)NC2=O)c1nc2ccccc2s1
98.8 µM | Cn1cc(C(CC(=O)c2ccc(C3CCCCC3)cc2)C(=O)O)c2ccccc21 (stereo not given)
89.6 µM | O=C1c2cc(Cl)ccc2-n2c1nc1ccccc1c2=O
> 100 µM (inactive) | CCN(CC)CCOC(=O)c1ccc(N/C=C(/C#N)c2nc(-c3cc4ccccc4oc3=O)cs2)cc1
> 100 µM (inactive) | Cc1ccc2c(c1)C(=O)c1nc3ccccc3c(=O)n1-2
37.5 µM | COc1ccc(N2C(=O)CC3(CC(c4ccc(F)cc4)=NO3)C2=O)cc1 (stereo not given)
> 100 µM (inactive) | CC(=O)c1ccc(C(=O)Nc2ccc3nc(C)[nH]c3c2)s1
> 100 µM (inactive) | Cc1ccc(-c2nc3ccc(NC(=O)c4cccs4)cc3[nH]2)o1
> 100 µM (inactive) | O=C(Nc1ccc2nc(-c3cccs3)[nH]c2c1)c1cccs1
> 100 µM (inactive) | CCN(CC)CCOC(=O)c1ccc(N/C=C(/C#N)c2nc(-c3ccc4c(c3)OCO4)cs2)cc1
72 µM | CCN(CC)CCOC(=O)c1ccc(N/C=C(\C#N)c2nc(-c3ccc(Cl)c(Cl)c3)cs2)cc1
> 100 µM (inactive) | CCN(CC)CCOC(=O)c1ccc(N/C=C(/C#N)c2nc(-c3ccc(OC)cc3)cs2)cc1
89.7 µM | Cc1cc(NC(=O)C2CC2)sc1C(=O)Nc1ccc2nc(-c3cc(F)ccc3F)[nH]c2c1
> 100 µM (inactive) | O=C(Nc1ccc(-c2nc3ccc(NC(=O)c4cccs4)cc3[nH]2)cc1)c1cccs1
> 100 µM (inactive) | Cc1nc2ccc(-c3nc4ccc(NC(=O)c5cccs5)cc4[nH]3)cc2[nH]1
